# Data taken from patent publication US9060991B2, “Use of GLP-1 analogues for the treatment of disorders associated with dysfunctional synaptic transmission” (Innovation Ulster Limited, priority 2007, dated 2015).
# Where no end group is shown, it is not given here.
# Legend:
# Assay type in all cases: in vivo, Male Wistar rats
# [1] = tested on: long-term potentiation of synaptic transmission (EPSP slope, CA1 region of hippocampus); test: LTP in hippocampal CA1 after icv GLP-1 peptides, weak HFS protocol; conditions: 15 nmol in 5 μl icv, LTP induced 30 min post-injection (time not given for FIG. 3A)
# Source text: (§1) Male Wistar rats weighing 220-280 g were anaesthetised with urethane (ethyl carbamate, 1.8 g/kg, intraperitoneal, (i.p.)) for the duration of all experiments. The animals had been obtained from Harlan, United Kingdom (UK). A cannula (22 gauge, 0.7 mm outer diameter, 11 mm in length, Bilaney, Kent, UK) was implanted (1.5 mm anterior to bregma, 0.5 mm lateral to the midline and 3.55 mm ventral) into the left hemisphere for intracerebroventricular (icv) injections. Electrodes (tungsten with Teflon® coating, Bilaney, Kent, UK) were implanted unilaterally 3.4 mm posterior and 2.5 mm lateral to the midline, and the stimulating electrode 4.2 mm posterior to bregma and 3.8 mm lateral to the midline. […] Recordings of EPSPs were made from the stratum radiatum in the CA1 region of the right hippocampal hemisphere in response to stimulation of the Schaffer collateral/commissural pathway. Field EPSPs were recorded on a computerised stimulating and recording unit (PowerLab, ADI instruments, UK) in which the trigger threshold was adjustable. The triggered unit activated a constant current stimulus isolation unit (Neurolog, UK). The data acquisition system was triggered simultaneously to record all events. Sampling speed was at 20 kHz recording of EPSPs.
# (§2) The ‘strong’ high frequency stimulation (HFS) protocol for inducing long-term potentiation (LTP) consisted of 3 trains of 200 stimuli, inter-stimulus interval 5 ms (200 Hz), inter-train interval 2 sec. […] The ‘weak’ HFS protocol for inducing LTP consisted of 10 trains of 10 stimuli, inter-stimulus interval 5 ms (200 Hz). The strong HFS was used to test the effects of peptides that impair LTP (beta-amyloid), and the weak HFS was used to test peptides that facilitate LTP. In this form of LTP, the control group is not potentiated at a maximal rate, and LTP can decay slowly over time. Stimulation intensity was 70% of the maximum EPSP. LTP was measured as % of baseline EPSP slope recorded over a 30 min period prior to drug injection and 60 min prior to application of HFS. Baseline was recorded for 30 min and averaged. This value was taken as 100% of the EPSP slope and all recoded values were normalised to this baseline value. All experiments were licensed according to UK Home Office regulations, and the “Principles of laboratory animal care” (NIH publication No. 86-23, revised 1985) were followed.
# Beta-amyoid (25-35) and other peptides used in this study were synthesised on an Applied Biosystems automated peptides synthesiser (Model 432A) using standard solid-phase Fmoc protocols. Peptides were judged pure by reversed phase HPLC on a waters Millenium 2010 chromatography system, and peptides were subsequently characterised using matrix-assisted laser desorption/ionisation time of flight (MALDI-TOF) mass spectrometry as described previously (Gengler et al., 2006; Hölscher et al., 2007). Peptides were stored in dry form and dissolved in double distilled water before the experiments. 5 μl of peptides solution was injected icv.
# (§3) Each group consisted of 6 animals. Data were analysed using a repeated measures two-way ANOVA, or a repeated measures three level two-way ANOVA with post-hoc tests to discriminate between groups (PRISM, GraphPad software Inc; USA). […]
# Male Wistar rats were icv injected with either vehicle (Control,) or 15 nmol Val(8)GLP-1 (♦). LTP was induced 30 min post-injection using the HFS (weak protocol), and the change in EPSP assessed and graphed to represent the change in LTP (FIG. 3B). […]
# [2] = tested on: long-term potentiation of synaptic transmission (EPSP slope, CA1 region of hippocampus); test: Val(8)GLP-1 against beta-amyloid(25-35)-induced impairment of LTP; conditions: for impairing effect of beta-amyloid on LTP: LTP induced 15 min post-βA injection
# Source text: as §1, §2
# Beta-amyoid (25-35) and other peptides used in this study were synthesised on an Applied Biosystems automated peptides synthesiser (Model 432A) using standard solid-phase Fmoc protocols. […]
# as §3
# [3] = tested on: long-term potentiation of synaptic transmission (EPSP slope, CA1 region of hippocampus); test: LTP in hippocampal CA1 after icv beta-amyloid(25-35), strong HFS protocol; conditions: LTP induced 15 min post-injection, control = scrambled peptide
# Source text: Male Wistar rats weighing 220-280 g were anaesthetised with urethane (ethyl carbamate, 1.8 g/kg, intraperitoneal, (i.p.)) for the duration of all experiments. The animals had been obtained from Harlan, United Kingdom (UK). A cannula (22 gauge, 0.7 mm outer diameter, 11 mm in length, Bilaney, Kent, UK) was implanted (1.5 mm anterior to bregma, 0.5 mm lateral to the midline and 3.55 mm ventral) into the left hemisphere for intracerebroventricular (icv) injections. Electrodes (tungsten with Teflon® coating, Bilaney, Kent, UK) were implanted unilaterally 3.4 mm posterior and 2.5 mm lateral to the midline, and the stimulating electrode 4.2 mm posterior to bregma and 3.8 mm lateral to the midline. […] Field EPSPs were recorded on a computerised stimulating and recording unit (PowerLab, ADI instruments, UK) in which the trigger threshold was adjustable. […]
# The ‘strong’ high frequency stimulation (HFS) protocol for inducing long-term potentiation (LTP) consisted of 3 trains of 200 stimuli, inter-stimulus interval 5 ms (200 Hz), inter-train interval 2 sec. […] LTP was measured as % of baseline EPSP slope recorded over a 30 min period prior to drug injection and 60 min prior to application of HFS. Baseline was recorded for 30 min and averaged. […]
# LTP was induced 15 min post-injection using the HFS (strong protocol), and the change in EPSP assessed and graphed to represent the change in LTP (FIG. 2). […]
substance,measurement,setting,value
"Asp(7)GLP-1: analogue of human GLP-1 with Asp at position 7, SEQ ID NO: 3 (DAEGTFTSDVSSYLEGQAAKEFIAWLVKGR; Synthetic peptide analogue derived from human GLP-1)",effect on LTP (change in EPSP) versus control,[1],enhanced long-term potentiation (LTP) compared with control
GLP-1(7-36)amide: the natural hormone GLP-1(7-36)amide (HAEGTFTSDVSSYLEGQAAKEFIAWLVKGR-NH2; listed as Homo sapiens) [reference compound],effect on LTP (change in EPSP) versus control,[1],difference between the GLP-1(7-36)amide group and control
GLP-1(9-36)amide [reference compound],effect on LTP (change in EPSP) versus control,[1],no difference between the GLP-1(9-36)amide group and the control group
"Pro(9)GLP-1: analogue of human GLP-1 with Pro at position 9, SEQ ID NO: 5 (HAPGTFTSDVSSYLEGQAAKEFIAWLVKGR; Synthetic peptide analogue derived from human GLP-1)",effect on LTP (change in EPSP) versus control,[1],enhanced long-term potentiation (LTP) compared with control
"Val(8)GLP-1: analogue of human GLP-1 with Val at position 8, SEQ ID NO: 4",effect on LTP (change in EPSP) versus control,[1],can enhance the induction of LTP
same,impairing effect of beta-amyloid on LTP,[2]; Val(8)GLP-1 15 nmol icv 15 min before beta-amyloid(25-35) 100 nmol icv,"not significantly affected, but a trend became visible"
same,impairing effect of beta-amyloid on LTP,[2]; Val(8)GLP-1 15 nmol icv 30 min before beta-amyloid(25-35) 100 nmol icv,completely reversed
same,impairing effect of beta-amyloid on LTP,[2]; Val(8)GLP-1 15 nmol icv simultaneously with beta-amyloid(25-35) 100 nmol icv,not affected
"βA(25-35): beta-amyloid fragment 25-35, peptide that impairs LTP (GSNKGAIIGLM; Amyloid-beta protein 42; UniProt P05067 696-706, looked up, fragment)",effect on LTP (change in EPSP) versus vehicle control,"[2]; beta-amyloid(25-35) alone, 100 nmol icv, LTP induced 15 min post-injection, FIG. 4A-4C experiments",difference between the beta-amyloid(25-35) group and control
same,effect on LTP (change in EPSP) versus control,[3]; 10 nmol icv,difference between the 10 nmol group and control
same,effect on LTP (change in EPSP) versus control,[3]; 100 nmol icv,difference between the 100 nmol group and control
